Some results are limits rather than exact numbers.

The nature of data set [1]: Caco-2 cell monolayer model assay (permeability). Format: in vitro ADME. Conditions: human. On the procedure:
(§1) Caco-2 cell model was used to assess the permeability of the compounds disclosed herein. Caco-2 cell was obtained from the CO-BIOR and the CO-BIOR Number is CBP60025. The cell generation used in the experiment was P9.
(§2) 1) […] of cell culture medium was added to each well of the Transwell reservoir, respectively. And then the PET transwell plates were incubated at 37° C., 5% CO2 for 1 hour before cell seeding.
(§3) 2) Caco-2 cells were diluted to 3.43×10^5 cells/mL with culture medium and 100 μL of cell suspension were dispensed into the filter well of the 96-well PET Transwell plate. Cells were cultivated for 14-18 days in a cell culture incubator at 37° C., 5% CO2, 95% relative humidity. Cell culture medium was replaced every other day, beginning no later than 24 hours after initial plating.
(§4) 3) Measure the electrical resistance across the monolayer by using Millicell Epithelial Volt-Ohm measuring system. Record the electrical resistance for each well. Once all wells have been measured, return the plate(s) to the incubator.
(§5) 4) TEER of each well is calculated by the equation below. The TEER value of each well should be greater than 230 ohms·cm^2.
(§6) 1) Remove the Caco-2 plate(s) from the incubator. Wash the monolayer twice with pre-warmed HBSS (10 mM HEPES, pH 7.4). Then incubate the plate(s) at 37° C. for 30 minutes.
(§7) 2) Prepare stock solutions of control compounds in DMSO at 5 mM and dilute with HBSS (10 mM HEPES, pH 7.4) to get 5 μM working solutions. Prepare stock solutions of test compounds in DMSO at 1 mM and dilute with HBSS (10 mM HEPES, pH 7.4) to get 1 μM working solutions. Digoxin is used as the reference substrate of Pgp. Atenolol is used as the low permeability marker, minoxidil is used as the high permeability marker.
(§8) 3) To determine the rate of drug transport in the apical to basolateral direction, add 100 μL of the working donor solutions (without inhibitor) to the Transwell insert (apical compartment). Fill the wells in the receiver plate (basolateral compartment) with 300 μL of transport buffer. To determine the rate of drug transport in the basolateral to apical direction, add 300 μL of the working donor solutions (without inhibitor) to the receiver plate wells (basolateral compartment). Fill the Transwell insert (apical compartment) with 100 μL of transport buffer.
(§9) 4) Transfer 50 μL samples from the working solutions to 300 μL of cold MeOH:acetonitrile=1:1 with IS (50 ng/ml Labetalol, 50 ng/ml Tolbutamide) to prepare the time 0 samples. Incubate the Transwell plate at 37° C., 5% CO2 with shaking at 60 rpm on a rotary shaker for 2 hours.
(§10) 5) At the end of the transport period, transfer 50 μL of samples from apical and basolateral wells to a new 96-well plate. Add 300 μL of quenching solution (MeOH:acetonitrile=1:1 with IS (50 ng/ml Labetalol, 50 ng/mL Tolbutamide)) into each well of the plate(s). Vortex for 10 minutes. Samples are centrifuged at 4000 rpm g for 30 minutes. An aliquot of 100 μL of the supernatant is mixed with an appropriate volume of ultra-pure water (depends on the LC-MS/MS signal response and peak shape) before LC-MS/MS analysis.
(§11) 6) To determine the Lucifer Yellow leakage after 2-hour transport period, prepare stock solutions of Lucifer yellow in DMSO and dilute with HBSS (10 mM HEPES, pH 7.4) to reach the final concentration of 100 μM. Add 100 μL of the Lucifer yellow solution to the apical compartment. Fill the basolateral compartment with 300 μL of HBSS (10 mM HEPES, pH 7.4). Incubate the plate(s) at 37° C. for 30 minutes and remove 80 μL directly from the apical and basolateral wells and transfer to new 96 wells plates. Measure Lucifer Yellow fluorescence (to monitor monolayer integrity) in a fluorescence plate reader at 485 nm excitation and 530 nm emission.
(§12) 7) Discard the remaining solution in the cell plate, Add 300 μL of quenching solution (MeOH:acetonitrile=1:1 with IS (50 ng/ml Labetalol, 50 ng/mL Tolbutamide)) into each well of the plate(s), blow up and down and mix well for 5 times. […]
Background: Caco-2 cells form a polarised layer with tight junctions and transporters.

Data set [2] is described as follows: in vitro. To be noted: human, microsomes.
The nature of data set [3]: in vitro. To be noted: rat, microsomes.
Data set [4] in a line: in vitro. To be noted: cynomolgus monkey, microsomes.
The next data set has as its system Caco-2 cell monolayer. Description: Caco-2 cell monolayer model assay (permeability). Format: in vitro ADME. To be noted: Caco-2, 1 μM. On the procedure:
as §1, §2, §3, §4, §5, §6, §7, §8, §9, §10, §11, §12

The next data set deals with CYP1A2 (Homo sapiens (Human), UniProt P05177). To be noted: microsomes. The protocol:
(§13) CYP isoforms inhibitory activities of test compounds were measured in human liver microsome.
(§14) Preparation details of these substrates are given in below table. The substrate stock solution was stored in a −20° C. freezer. Prior to use, the substrate stock solution was removed from the freezer and allowed to rise to room temperature. Then the substrate stock solution was mixed on a whirly mixer for 30 seconds.
(§15) HLMs were stored in a −80° C. freezer. Prior to use, the pooled HLM was removed from the freezer and allowed to thaw in a 37° C. water bath and then stored on wet ice.
(§16) The positive control inhibitors and their concentrations used by each isozyme are summarized below.
(§17) All samples were incubated in a 37° C. water bath, with three parallels for each concentration of the test compound and two parallels for each concentration of the positive control inhibitor. 100 μL of microsome working solution was taken and added 2 μL of the test product or positive inhibitor working solution. 2 μL solvents was added to the solvent control, and put in a water bath to pre-incubate for 10 min. After pre-incubation, 98 μL of NADPH regeneration solution was added to all samples to start the reaction. Then the mixture was put back in the water bath and incubated for a certain period of time.
(§18) The reaction was quenched by 200 μL stop solution. […]
(§19) IC50 values were determined using 3- or 4-parameter logistic equation.

The next data set concerns the target CYP2C9 (Homo sapiens (Human), UniProt P11712). Description: CYP isoforms inhibitory assay in human liver microsome, CYP2C9. Format: in vitro ADME. To be noted: substrate diclofenac. On the procedure: as §13, §14, §15, §16, §17, §18, §19
The next data set concerns the target CYP2D6 (Homo sapiens (Human), UniProt P10635). The experiment in a line: CYP isoforms inhibitory assay in human liver microsome, CYP2D6. To be noted: read-out: IC50 CYP2D6, substrate dextromethorphan. On the procedure: as §13, §14, §15, §16, §17, §18, §19
On the technique in general: Liver microsomes are a subcellular fraction often used to study metabolism.

Data set [5] deals with cryopreserved hepatocytes.
The conditions of data set [6]: mouse, microsomes.

CYP2C9, sequence (P11712 whole entry, canonical isoform): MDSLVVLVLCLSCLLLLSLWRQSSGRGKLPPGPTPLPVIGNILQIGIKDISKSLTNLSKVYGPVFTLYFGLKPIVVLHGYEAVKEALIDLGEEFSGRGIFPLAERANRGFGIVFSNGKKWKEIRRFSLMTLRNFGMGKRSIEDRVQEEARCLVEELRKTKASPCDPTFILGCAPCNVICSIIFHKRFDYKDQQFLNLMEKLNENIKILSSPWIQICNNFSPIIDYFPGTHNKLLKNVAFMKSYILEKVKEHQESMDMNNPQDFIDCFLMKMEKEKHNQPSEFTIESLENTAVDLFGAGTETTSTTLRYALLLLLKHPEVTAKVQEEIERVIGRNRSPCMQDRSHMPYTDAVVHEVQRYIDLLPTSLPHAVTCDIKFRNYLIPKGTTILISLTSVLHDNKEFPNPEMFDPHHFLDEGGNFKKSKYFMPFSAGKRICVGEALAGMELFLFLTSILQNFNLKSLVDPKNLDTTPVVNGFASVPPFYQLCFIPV
CYP1A2, sequence (P05177 whole entry, canonical isoform): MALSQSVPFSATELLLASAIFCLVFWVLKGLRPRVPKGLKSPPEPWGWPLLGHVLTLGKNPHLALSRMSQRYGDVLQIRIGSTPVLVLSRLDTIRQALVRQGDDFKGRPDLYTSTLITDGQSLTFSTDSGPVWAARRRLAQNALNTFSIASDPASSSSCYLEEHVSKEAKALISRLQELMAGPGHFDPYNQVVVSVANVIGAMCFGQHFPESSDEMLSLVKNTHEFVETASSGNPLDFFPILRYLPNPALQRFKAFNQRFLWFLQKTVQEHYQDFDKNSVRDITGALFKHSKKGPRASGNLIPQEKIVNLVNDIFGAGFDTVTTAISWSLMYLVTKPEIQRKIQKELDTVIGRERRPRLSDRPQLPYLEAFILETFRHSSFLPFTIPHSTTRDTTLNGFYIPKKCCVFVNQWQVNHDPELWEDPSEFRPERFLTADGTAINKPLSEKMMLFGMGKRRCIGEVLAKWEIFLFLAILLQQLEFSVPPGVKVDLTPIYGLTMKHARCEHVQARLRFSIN
CYP2D6, sequence (P10635 whole entry, canonical isoform): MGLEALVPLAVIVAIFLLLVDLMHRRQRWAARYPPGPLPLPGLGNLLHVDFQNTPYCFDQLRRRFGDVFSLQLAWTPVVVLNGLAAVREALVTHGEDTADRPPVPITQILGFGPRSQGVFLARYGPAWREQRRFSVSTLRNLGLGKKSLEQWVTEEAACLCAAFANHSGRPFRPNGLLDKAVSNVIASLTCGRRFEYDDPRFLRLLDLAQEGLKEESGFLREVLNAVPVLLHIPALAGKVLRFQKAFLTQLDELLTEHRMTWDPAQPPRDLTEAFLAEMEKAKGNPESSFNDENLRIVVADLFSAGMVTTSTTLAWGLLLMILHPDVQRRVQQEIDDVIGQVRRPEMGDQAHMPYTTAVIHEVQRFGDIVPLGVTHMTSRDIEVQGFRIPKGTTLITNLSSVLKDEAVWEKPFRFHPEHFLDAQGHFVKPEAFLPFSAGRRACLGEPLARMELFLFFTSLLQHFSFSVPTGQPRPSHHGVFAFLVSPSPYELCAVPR

With `CN(C(=O)c1ccc2nc(N)c3cncn3c2c1)[C@@H]1COc2cc(C(F)(F)F)ccc21` [Compound 12], the efflux ratio at 2 h, 1 μM in data set [1] (Caco-2, pH 7.4) worked out at 1.98. In addition, in [1] (Caco-2, 1 μM, 2 hours, pH 7.4), the Papp A→B at 2 h, 1 μM came out at 6.07 ×10⁻⁶ cm/s. Moreover, the Papp B→A at 2 h, 1 μM in data set [1] (Caco-2, 1 μM, 2 hours, pH 7.4) is 12 ×10⁻⁶ cm/s. For the same compound, the figures for the half-life at 1 μM in the data set “in vitro [2]”, in the data set “in vitro [3]” and in “in vitro [4]” were over 2.42 h, over 2.42 h and 0.935 h, respectively.

As for `CN(C(=O)c1ccc2nc(N)c3cncn3c2c1)C1COc2cc(C(F)(F)F)ccc21` (stereo not drawn) [Compound 17], in the data set on Caco-2 cell monolayer, the “Recovery AP − BL” value amounted to 81.0% and the “Recovery BL − AP” value is given as 85.6%. In the data set with Caco-2 cell monolayer (2 hours, pH 7.4), the “Papp (A−B)” value is given as 6.70 10^−6 cm/s and the “Papp (B−A)” value is reported as 11.8 10^−6 cm/s. For the same compound, in the data set on Caco-2 cell monolayer (Papp (B-A)/Papp (A-B)), the “Efflux Ratio” value is reported as 1.76. Also, on CYP1A2, the IC50 was over 30 µM. At CYP2C9, this compound displayed an IC50 of over 30 µM. The IC50 on CYP2D6 is over 30 µM. Moreover, the “CLint (liver) M” value in data set [5] came out at 183.3 mL/min/kg. In addition, in data set [5] (mouse), the “CLint (hep) M” value is reported as 15.4 μL/min/10^6 and the “T1/2 (hepatocytes) M” value was 1.5 h. In data set [6], the “T1/2 of LMS, M” value is 1.61 h.

As a reminder, the efflux ratio is the permeability from basolateral to apical divided by that in the opposite direction, in the common usage. Usually Papp A→B stands for the apparent permeability from the apical to the basolateral side of a cell layer. A low value points to slow passage. For orientation: Papp B→A means the apparent permeability from the basolateral to the apical side of a cell layer. The half-life is the time needed for the level to fall by half in the phase considered. A word on the IC50: it is the concentration at which inhibition is half-maximal.

(Values after US20240262835A1, “PRMT5 INHIBITING COMPOUNDS AND USES THEREOF” (ANTENGENE DISCOVERY LIMITED, priority 2023, published 2024).)
